Data taken from patent US20150342954A1, “2-BENZYL, 3-(PYRIMIDIN-2-YL) SUBSTITUTED PYRAZOLES USEFUL AS SGC STIMULATORS” (IRONWOOD PHARMACEUTICALS, INC., priority 2011, published 2015).
Like-named read-outs stand apart in the source and are kept apart here.

Legend:
[1] = biological target: T1, soluble guanylate cyclase (sGC) (Homo sapiens, UniProt Q02108+Q02153); assay: sGC-HEK-cGMP assay (run with SNP incubation); type: cell-based; conditions: for Emax: 10 μM SNP, 100% = 30 μM BAY 41-2272 with 10 μM SNP, read-out: HEK assay Emax-unconstrained (Percent); for HEK MEC-10: concentration that would elicit 10% of the Emax in the presence of 10 μM SNP; for EC50: in the presence of 10 μM SNP
T1 construct: endogenously expressing soluble guanylate cyclase (sGC); endogenous in cells; host or cells: HEK293
T1 sequence (Q02153 1-619): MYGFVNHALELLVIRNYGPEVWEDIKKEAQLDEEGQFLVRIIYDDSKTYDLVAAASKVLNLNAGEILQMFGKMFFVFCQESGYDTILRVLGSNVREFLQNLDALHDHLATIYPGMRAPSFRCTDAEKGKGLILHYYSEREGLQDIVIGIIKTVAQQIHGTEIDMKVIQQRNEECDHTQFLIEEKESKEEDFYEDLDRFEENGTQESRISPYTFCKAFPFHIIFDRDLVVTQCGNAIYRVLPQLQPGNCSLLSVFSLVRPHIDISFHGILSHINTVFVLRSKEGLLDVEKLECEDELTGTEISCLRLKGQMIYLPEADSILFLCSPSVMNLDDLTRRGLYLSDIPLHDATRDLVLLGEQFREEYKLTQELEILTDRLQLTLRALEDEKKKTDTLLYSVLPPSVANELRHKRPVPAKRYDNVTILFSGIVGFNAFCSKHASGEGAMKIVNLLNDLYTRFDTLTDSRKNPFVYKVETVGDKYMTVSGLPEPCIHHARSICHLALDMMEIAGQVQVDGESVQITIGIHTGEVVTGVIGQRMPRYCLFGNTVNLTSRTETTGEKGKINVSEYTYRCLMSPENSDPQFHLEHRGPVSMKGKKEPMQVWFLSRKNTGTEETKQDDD
T1 sequence (Q02108 1-690): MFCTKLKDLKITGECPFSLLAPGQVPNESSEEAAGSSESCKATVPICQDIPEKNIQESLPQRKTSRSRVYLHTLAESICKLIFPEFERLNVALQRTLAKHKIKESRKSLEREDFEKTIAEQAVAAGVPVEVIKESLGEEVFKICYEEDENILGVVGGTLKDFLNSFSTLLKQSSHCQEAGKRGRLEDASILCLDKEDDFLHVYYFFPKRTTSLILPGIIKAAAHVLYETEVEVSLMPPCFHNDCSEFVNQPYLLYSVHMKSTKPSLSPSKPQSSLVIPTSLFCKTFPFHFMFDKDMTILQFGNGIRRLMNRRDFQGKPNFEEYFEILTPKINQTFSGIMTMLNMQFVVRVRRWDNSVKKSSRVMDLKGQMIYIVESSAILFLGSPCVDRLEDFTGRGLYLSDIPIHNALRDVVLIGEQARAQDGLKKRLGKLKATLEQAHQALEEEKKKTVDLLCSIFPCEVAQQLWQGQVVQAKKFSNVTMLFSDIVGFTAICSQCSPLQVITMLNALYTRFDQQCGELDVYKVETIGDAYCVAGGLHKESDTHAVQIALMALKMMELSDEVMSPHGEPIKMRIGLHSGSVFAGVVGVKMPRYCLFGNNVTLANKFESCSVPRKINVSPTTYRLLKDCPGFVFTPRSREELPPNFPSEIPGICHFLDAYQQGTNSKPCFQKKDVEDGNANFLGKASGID
Method in brief: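 HEK293 cells with endogenous sGC were pre-treated 15 min at 37 °C with 0.5 mM IBMX, then exposed to test compound plus sodium nitroprusside for 10 min at 37 °C. Cells were lysed in 0.1 M HCl (4 °C, 30 min), and cGMP was quantified by LC/MS against a standard curve. EC50 values came from concentration-response curves.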

[2] = biological target: T2, Human soluble guanylate cyclase enzyme (hsGC) (Homo sapiens, UniProt Q02108+Q02153); assay: Purified human sGC enzyme activity assay (without SNP); type: biochemical; conditions: compound at 30 μM, absence of SNP, fold over DMSO control
T2 construct: purchased Enzo Inc. ALX-201-177
T2 sequence (Q02153 1-619): T1 sequence (Q02153 1-619)
T2 sequence (Q02108 1-690): T1 sequence (Q02108 1-690)
Procedure: Biological Activity Measurements by the Purified Human sGC Enzyme Activity Assay
(§1) Human soluble guanylate cyclase enzyme (hsGC) obtained from Enzo Inc. (P/N: ALX-201-177) was used to evaluate the activity of test compounds. The assay reactions contained 0.1 M Tris (pH 8.0), 0.5 mg/mL BSA (pH 8.0), 2 mM DTT, 2 mM MgCl2, 300 μM GTP, 1 mM 3-isobutyl-1-methylxanthine (IBMX) and 5 ng human soluble guanylate cyclase enzyme. Test compounds in DMSO were then added (2 μL, 10 or 30 μM final concentration) and incubated (200 μL, 96-well plate format) at 37° C. for 30 minutes. The controls were carried out using 2 μL DMSO. After the 30 minute incubation, the reaction was stopped with the addition of 200 μl of cold methanol. The plate was then centrifuged at 3,200 rpm for 10 minutes at room temperature. Supernatants (200 μL) were collected and transferred to a new 96 well plate for analysis.
(§2) An 8 point cGMP (Sigma-Aldrich P/N: G6129) standard curve was prepared in assay buffer ranging from 0.156-20 μM. Samples for the cGMP standard curve were then diluted with an equal volume of methanol resulting in final cGMP concentrations of 0.078-10 μM.
(§3) The cGMP standard curve was generated using GraphPad Prism Software.
(§4) Calculations: Specific Activity was determined by the amount of cGMP formed (nmoles) per mg of sGC per min. Enzyme “fold-change” was calculated by dividing Specific Activity for test compounds by Specific Activity of DMSO controls.

[3] = biological target: T2, Human soluble guanylate cyclase enzyme (hsGC); assay: Purified human sGC enzyme synergy assay in the presence of 1 μM sodium nitroprusside (SNP); type: biochemical; conditions: compound at 30 μM, presence of 1 μM SNP
Procedure: as §1, §2, §3, §4
Biological Measurement by the Purified Human sGC Enzyme Synergy Performed in the Presence of Sodium Nitroprusside (SNP), a Nitric Oxide Donor
Enzyme assays were performed as described above, but was done in the absence or presence of 1 μM sodium nitroprusside (SNP).

[4] = Table 3B, top of concentration-response curve not fitted to 100%
[5] = Table 3E, read-out: HEK assay EC50
[6] = top of concentration-response curve not fitted to 100%, Table 3E, read-out: HEK assay EC50-unconstrained
[7] = Table 3C, top of concentration-response curve not fitted to 100%
[8] = Table 3F, read-out: HEK assay EC50
[9] = top of concentration-response curve not fitted to 100%, Table 3F, read-out: HEK assay EC50-unconstrained
[10] = Table 3A, top of concentration-response curve not fitted to 100%
[11] = Table 3D, read-out: HEK assay EC50
[12] = top of concentration-response curve not fitted to 100%, Table 3D, read-out: HEK assay EC50-unconstrained

Row | Compound | Emax [1, 4] [%] | EC50 [1, 6] [µM] | Enzyme Activity (increase at 30 μM without SNP) ([2]; Table 5B) | Enzyme Activity (increase at 30 μM with SNP) ([3]; Table 5B) | Emax [1, 10] [%] | HEK MEC-10 ([1]; Table 3D) | EC50 [1, 11] [µM] | EC50 [1, 12] [µM] | Enzyme Activity (increase at 30 μM without SNP) ([2]; Table 5A) | Enzyme Activity (increase at 30 μM with SNP) ([3]; Table 5A) | other results
1 | O=c1[nH]c(-c2cc(-c3ccccn3)n(Cc3ccccc3F)n2)ncc1F [Compound 68] | 40 to 60 | 5 to 10 | A (no increase to <2 fold increase) | C (5 to <10 fold increase) | – | – | – | – | – | – | HEK MEC-10 ([1]; Table 3E): D (1 to <10 μM); EC50 [1, 5]: 40 to 60 µM
2 | Nc1nc(-c2cc(-c3ccon3)n(Cc3cccc(F)c3F)n2)ncc1NC(=O)c1ccc(F)cc1 [Compound 88] | 80 to 100 | 1 to 5 | F (>30 fold increase) | E (20 to 30 fold increase) | – | – | – | – | – | – | –
3 | O=c1[nH]c(-c2cc(-c3ccon3)n(Cc3cc(F)ccc3F)n2)ncc1F [Compound 72] | 40 to 60 | 0.01 to 0.5 | D (10 or <20 fold increase) | D (10 or <20 fold increase) | – | – | – | – | – | – | HEK MEC-10 ([1]; Table 3E): B (0.01 to <0.1 μM); EC50 [1, 5]: 40 to 60 µM
4 | CC1(C)C(=O)Nc2nc(-c3cc(-c4ccon4)n(Cc4ccccc4F)n3)nc(N)c21 [Compound 99, 4-amino-2-(1-(2-fluorobenzyl)-5-(isoxazol-3-yl)-1H-pyrazol-3-yl)-5,5-dimethyl-5H-pyrrolo[2,3-d]pyrimidin-6(7H)-one] | – | – | – | – | – | – | – | – | – | – | Emax [1, 7]: 40 to 60%; HEK MEC-10 ([1]; Table 3F): B (0.01 to <0.1 μM); EC50 [1, 8]: < 20 µM; EC50 [1, 9]: 0.01 to 0.5 µM; Enzyme Activity (increase at 30 μM without SNP) ([2]; Table 5C): D (10 or <20 fold increase); Enzyme Activity (increase at 30 μM with SNP) ([3]; Table 5C): D (10 or <20 fold increase)
5 | Nc1nc(-c2cc(-c3ncco3)n(Cc3ccccc3F)n2)ncc1NC(=O)C1(F)CC1 [Compound 31] | – | – | – | – | 80 to 100 | C (0.1 to <1 μM) | < 20 | 1 to 5 | B (2 to <5 fold increase) | D (10 or <20 fold increase) | –
6 | Fc1ccccc1Cn1nc(-c2ncc3[nH]cnc3n2)cc1-c1ccon1 [Compound 110] | – | – | – | – | – | – | – | – | – | – | Emax [1, 7]: 80 to 100%; HEK MEC-10 ([1]; Table 3F): C (0.1 to <1 μM); EC50 [1, 8]: < 20 µM; EC50 [1, 9]: 1 to 5 µM; Enzyme Activity (increase at 30 μM without SNP) ([2]; Table 5C): D (10 or <20 fold increase); Enzyme Activity (increase at 30 μM with SNP) ([3]; Table 5C): D (10 or <20 fold increase)
7 | Fc1ccccc1Cn1nc(-c2ncccn2)c(F)c1-c1ccon1 [Compound 34] | – | – | – | – | 20 to 40 | D (1 to <10 μM) | 60 to 100 | 1 to 5 | B (2 to <5 fold increase) | D (10 or <20 fold increase) | –
8 | Cn1[nH]c2nc(-c3cc(-c4ccon4)n(Cc4ccccc4F)n3)ncc2c1=O [Compound 112] | – | – | – | – | – | – | – | – | – | – | Emax [1, 7]: 60 to 80%; HEK MEC-10 ([1]; Table 3F): E (10 to 50 μM); EC50 [1, 8]: 60 to 100 µM; EC50 [1, 9]: 10 to 50 µM; Enzyme Activity (increase at 30 μM without SNP) ([2]; Table 5C): A (no increase to <2 fold increase); Enzyme Activity (increase at 30 μM with SNP) ([3]; Table 5C): B (2 to <5 fold increase)
9 | O=c1[nH]c(-c2cc(-c3ccon3)n(Cc3ccc(F)cc3F)n2)ncc1F [Compound 70] | 40 to 60 | 0.01 to 0.5 | C (5 to <10 fold increase) | D (10 or <20 fold increase) | – | – | – | – | – | – | HEK MEC-10 ([1]; Table 3E): C (0.1 to <1 μM); EC50 [1, 5]: 40 to 60 µM
10 | Oc1nc(-c2cc(-c3nccs3)n(Cc3ccccc3F)n2)ncc1F [Compound 44] | – | – | – | – | 40 to 60 | C (0.1 to <1 μM) | < 20 | 0.01 to 0.5 | B (2 to <5 fold increase) | D (10 or <20 fold increase) | –

Now from value to compound, other results behind:

Row | Emax [1, 4] [%] | EC50 [1, 6] [µM] | Enzyme Activity (increase at 30 μM without SNP) ([2]; Table 5B) | Enzyme Activity (increase at 30 μM with SNP) ([3]; Table 5B) | Emax [1, 10] [%] | HEK MEC-10 ([1]; Table 3D) | EC50 [1, 11] [µM] | EC50 [1, 12] [µM] | Enzyme Activity (increase at 30 μM without SNP) ([2]; Table 5A) | Enzyme Activity (increase at 30 μM with SNP) ([3]; Table 5A) | Compound | other results
11 | – | – | – | – | 80 to 100 | B (0.01 to <0.1 μM) | < 20 | 0.5 to 1 | C (5 to <10 fold increase) | D (10 or <20 fold increase) | Oc1nc(-c2cc(-c3ccon3)n(Cc3ccccc3)n2)ncc1F [Compound 41] | –
12 | – | – | – | – | 60 to 80 | C (0.1 to <1 μM) | < 20 | 1 to 5 | C (5 to <10 fold increase) | E (20 to 30 fold increase) | CC(C)(CC(F)(F)F)C(=O)Nc1cnc(-c2cc(-c3ccon3)n(Cc3ccccc3F)n2)nc1N [Compound 53] | –
13 | 60 to 80 | 1 to 5 | C (5 to <10 fold increase) | D (10 or <20 fold increase) | – | – | – | – | – | – | Cc1cccc(Cn2nc(-c3ncc(F)c(O)n3)cc2-c2ccon2)c1F [Compound 86] | –
14 | – | – | – | – | 60 to 80 | B (0.01 to <0.1 μM) | – | – | C (5 to <10 fold increase) | D (10 or <20 fold increase) | COc1nc(-c2cc(-c3ccon3)n(Cc3ccccc3F)n2)ncc1F [Compound 28] | –
15 | – | – | – | – | 60 to 80 | B (0.01 to <0.1 μM) | < 20 | 0.5 to 1 | C (5 to <10 fold increase) | D (10 or <20 fold increase) | NNc1nc(-c2cc(-c3ccon3)n(Cc3ccccc3F)n2)ncc1F [Compound 56] | –
